Data from patent US7576222B2, “Alkynyl-containing tryptophan derivative inhibitors of TACE/matrix metalloproteinase” (priority 2004, dated 2009).

The molecules below were run against T1, catalytic domain of the recombinant TACE protein (Homo sapiens, UniProt P78536) (assay: TACE FRET assay using TACE cat). Settings: not given.
T1 construct: The catalytic domain of the recombinant TACE protein was expressed and purified; made in house
Assay type: biochemical
How it was run: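 Enzyme (1 ug/ml) pretreated with inhibitor for 10 min at room temperature in 50 mM Tris-HCl pH 7.4, 25 mM NaCl, 4% glycerol, 0.005% Brij 35, then started with FRET peptide Abz-[sequence]-Dpa (2 mM stock). Initial rate taken from fluorescence slope; IC50 fitted with floated Hill slope and background.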

T1 sequence (P78536 223-474 limits assumed): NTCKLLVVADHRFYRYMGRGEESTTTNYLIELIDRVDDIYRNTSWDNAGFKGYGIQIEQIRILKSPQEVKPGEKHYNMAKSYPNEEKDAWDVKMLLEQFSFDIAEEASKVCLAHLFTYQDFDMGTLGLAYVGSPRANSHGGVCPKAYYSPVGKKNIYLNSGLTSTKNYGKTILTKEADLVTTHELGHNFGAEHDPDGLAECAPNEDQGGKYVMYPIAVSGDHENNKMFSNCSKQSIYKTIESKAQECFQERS

| Structure (SMILES) | IC50 [nM] |
| --- | --- |
| CC#CCOc1ccc(S(=O)(=O)N[C@@H](Cc2cn(Cc3ccccc3F)c3ccc(OC)cc23)C(=O)O)cc1 [Example 58, N-{[4-(but-2-ynyloxy)phenyl]sulfonyl}-1-(2-fluorobenzyl)-5-methoxytryptophan] | 2240 |
| CC#CCOc1ccc(S(=O)(=O)N[C@@H](Cc2cn(Cc3ccc4c(c3)OCO4)c3ccc(OC)cc23)C(=O)O)cc1 [Example 65, 1-(1,3-benzodioxol-5-ylmethyl)-N-{[4-(but-2-ynyloxy)phenyl]sulfonyl}-5-methoxytryptophan] | 1500 |
| CC#CCOc1ccc(S(=O)(=O)N[C@@H](Cc2c(C)n(Cc3ccc(OC)cc3)c3ccc(Cl)cc23)C(=O)O)cc1 [Example 91, N-{[4-(but-2-ynyloxy)phenyl]sulfonyl}-5-chloro-1-(4-methoxybenzyl)-2-methyltryptophan] | 190 |
| CC#CCOc1ccc(S(=O)(=O)N[C@@H](Cc2c(C)n(Cc3ccc(C)cc3)c3ccc(OC)cc23)C(=O)O)cc1 [Example 188, N-{[4-(but-2-ynyloxy)phenyl]sulfonyl}-5-methoxy-2-methyl-1-(4-methylbenzyl)tryptophan] | 270 |

Same assay, conditions: TACE FRET assay, catalytic domain of recombinant TACE; read-out: TACE IC50

| Structure (SMILES) | IC50 [nM] |
| --- | --- |
| CC#CCOc1ccc(S(=O)(=O)N[C@H](Cc2cn(Cc3cccc(C(F)(F)F)c3)c3ccccc23)C(=O)O)cc1 [Example 40, N-{[4-(but-2-ynyloxy)phenyl]sulfonyl}-1-[3-(trifluoromethyl)benzyl]-D-tryptophan] | 2300 |
| CC#CCOc1ccc(S(=O)(=O)N[C@H](Cc2cn(C(=O)OC(C)(C)C)c3ccccc23)C(=O)O)cc1 [Example 220, 1-(tert-butoxycarbonyl)-N-{[4-(but-2-ynyloxy)phenyl]sulfonyl}-D-tryptophan] | 3670 |

Same assay, conditions: read-out: TACE Inhibition (%)

| Structure (SMILES) | inhibition at 1 µM [%] |
| --- | --- |
| CC#CCOc1ccc(S(=O)(=O)N[C@@H](Cc2c(C)n(Cc3ccc(C(C)C)cc3)c3ccc(Cl)cc23)C(=O)O)cc1 [Example 97, N-{[4-(but-2-ynyloxy)phenyl]sulfonyl}-5-chloro-1-(4-isopropylbenzyl)-2-methyltryptophan] | 21.9 |
| CC#CCOc1ccc(S(=O)(=O)N[C@@H](Cc2cn(Cc3ccc(C(C)C)cc3)c3ccc(C#N)cc23)C(=O)O)cc1 [Example 142, N-{[4-(but-2-ynyloxy)phenyl]sulfonyl}-5-cyano-1-(4-isopropylbenzyl)tryptophan] | 8.34 |
| CC#CCOc1ccc(S(=O)(=O)N[C@@H](Cc2cn(Cc3ccc4c(c3)OCO4)c3ccc(Cl)cc23)C(=O)O)cc1 [Example 83, 1-(1,3-benzodioxol-5-ylmethyl)-N-{[4-(but-2-ynyloxy)phenyl]sulfonyl}-5-chlorotryptophan] | 31.1 |
| CC#CCOc1ccc(S(=O)(=O)N[C@@H](Cc2cn(Cc3ccccc3C#N)c3ccc(C(=O)O)cc23)C(=O)O)cc1 [Example 121, N-{[4-(but-2-ynyloxy)phenyl]sulfonyl}-5-carboxy-1-(2-cyanobenzyl)tryptophan] | 14.8 |
| CC#CCOc1ccc(S(=O)(=O)N[C@@H](Cc2c(C)[nH]c3ccccc23)C(=O)O)cc1 [Example 134, N-{[4-(but-2-ynyloxy)phenyl]sulfonyl}-2-methyltryptophan] | 64.2 |
| CC#CCOc1ccc(S(=O)(=O)N[C@@H](Cc2cn(Cc3ccc(Cl)cc3)c3ccc(OC)cc23)C(=O)O)cc1 [Example 62, N-{[4-(but-2-ynyloxy)phenyl]sulfonyl}-1-(4-chlorobenzyl)-5-methoxytryptophan] | 39.3 |
| CC#CCOc1ccc(S(=O)(=O)N[C@@H](Cc2cn(Cc3ccccc3)c3ccc(Cl)cc23)C(=O)O)cc1 [Example 71, 1-benzyl-N-{[4-(but-2-ynyloxy)phenyl]sulfonyl}-5-chlorotryptophan] | -1.19 |
| CC#CCOc1ccc(S(=O)(=O)N[C@@H](Cc2cn(Cc3ccc(OC)cc3)c3ccc(OC)cc23)C(=O)O)cc1 [Example 53, N-{[4-(but-2-ynyloxy)phenyl]sulfonyl}-5-methoxy-1-(4-methoxybenzyl)tryptophan] | 30.6 |
| CC#CCOc1ccc(S(=O)(=O)N[C@@H](Cc2cn(Cc3ccc4c(c3)OCO4)c3ccc(C(=O)O)cc23)C(=O)O)cc1 [Example 124, 1-(1,3-benzodioxol-5-ylmethyl)-N-{[4-(but-2-ynyloxy)phenyl]sulfonyl}-5-carboxytryptophan] | 10.2 |
| CC#CCOc1ccc(S(=O)(=O)N[C@@H](Cc2cn(Cc3ccccc3C)c3ccc(C(=O)O)cc23)C(=O)O)cc1 [Example 104, N-{[4-(but-2-ynyloxy)phenyl]sulfonyl}-5-carboxy-1-(2-methylbenzyl)tryptophan] | 5.79 |
| CC#CCOc1ccc(S(=O)(=O)N[C@@H](Cc2cn(Cc3cccc(C(F)(F)F)c3)c3ccc(C(=O)O)cc23)C(=O)O)cc1 [Example 112, N-{[4-(but-2-ynyloxy)phenyl]sulfonyl}-5-carboxy-1-[3-(trifluoromethyl)benzyl]tryptophan] | 5.51 |
| CC#CCOc1ccc(S(=O)(=O)N[C@@H](Cc2cn(Cc3ccccc3F)c3ccc(C(=O)O)cc23)C(=O)O)cc1 [Example 115, N-{[4-(but-2-ynyloxy)phenyl]sulfonyl}-5-carboxy-1-(2-fluorobenzyl)tryptophan] | 4.29 |
| CC#CCOc1ccc(S(=O)(=O)N[C@@H](Cc2cn(Cc3cccc(C)c3)c3ccc(C(=O)O)cc23)C(=O)O)cc1 [Example 105, N-{[4-(but-2-ynyloxy)phenyl]sulfonyl}-5-carboxy-1-(3-methylbenzyl)tryptophan] | 11 |
| CC#CCOc1ccc(S(=O)(=O)N[C@@H](Cc2c(C)n(Cc3cccc(OC)c3)c3ccc(Cl)cc23)C(=O)O)cc1 [Example 90, N-{[4-(but-2-ynyloxy)phenyl]sulfonyl}-5-chloro-1-(3-methoxybenzyl)-2-methyltryptophan] | 65.2 |
| CC#CCOc1ccc(S(=O)(=O)N[C@@H](Cc2c(C)n(CC)c3ccc(OC)cc23)C(=O)O)cc1 [Example 209, N-{[4-(but-2-ynyloxy)phenyl]sulfonyl}-1-ethyl-5-methoxy-2-methyltryptophan] | 69.8 |
| CC#CCOc1ccc(S(=O)(=O)N[C@@H](Cc2cn(Cc3ccc(C)cc3)c3ccc(C(=O)O)cc23)C(=O)O)cc1 [Example 106, N-{[4-(but-2-ynyloxy)phenyl]sulfonyl}-5-carboxy-1-(4-methylbenzyl)tryptophan] | 5.53 |
| CC#CCOc1ccc(S(=O)(=O)N[C@@H](Cc2c(C)n(Cc3ccc(F)cc3)c3ccccc23)C(=O)O)cc1 [Example 154, N-{[4-(but-2-ynyloxy)phenyl]sulfonyl}-1-(4-fluorobenzyl)-2-methyltryptophan] | 52.7 |
| CC#CCOc1ccc(S(=O)(=O)N[C@@H](Cc2cn(CC)c3ccc(C(=O)O)cc23)C(=O)O)cc1 [Example 128, N-{[4-(but-2-ynyloxy)phenyl]sulfonyl}-5-carboxy-1-ethyltryptophan] | -0.6 |
| CC#CCOc1ccc(S(=O)(=O)N[C@@H](Cc2c(C)n(Cc3ccc(C)cc3)c3ccc(Cl)cc23)C(=O)O)cc1 [Example 92, N-{[4-(but-2-ynyloxy)phenyl]sulfonyl}-5-chloro-2-methyl-1-(4-methylbenzyl)tryptophan] | 64 |
| CC#CCOc1ccc(S(=O)(=O)N[C@@H](Cc2cn(Cc3ccc(Cl)cc3)c3ccc(C(=O)O)cc23)C(=O)O)cc1 [Example 119, N-{[4-(but-2-ynyloxy)phenyl]sulfonyl}-5-carboxy-1-(4-chlorobenzyl)tryptophan] | 11.7 |
| CC#CCOc1ccc(S(=O)(=O)N[C@@H](Cc2cn(CC3CCC3)c3ccc(Cl)cc23)C(=O)O)cc1 [Example 86, N-{[4-(but-2-ynyloxy)phenyl]sulfonyl}-5-chloro-1-(cyclobutylmethyl)tryptophan] | 15.7 |
| CC#CCOc1ccc(S(=O)(=O)N[C@@H](Cc2cn(Cc3ccccc3)c3ccc(C#N)cc23)C(=O)O)cc1 [Example 135, 1-benzyl-N-{[4-(but-2-ynyloxy)phenyl]sulfonyl}-5-cyanotryptophan] | 29.6 |
| CC#CCOc1ccc(S(=O)(=O)N[C@@H](Cc2cn(CC3CCC3)c3ccc(C(=O)O)cc23)C(=O)O)cc1 [Example 131, N-{[4-(but-2-ynyloxy)phenyl]sulfonyl}-5-carboxy-1-(cyclobutylmethyl)tryptophan] | -1.21 |
| CC#CCOc1ccc(S(=O)(=O)N[C@@H](Cc2c(C)n(Cc3cccc(C)c3)c3ccc(OC)cc23)C(=O)O)cc1 [Example 187, N-{[4-(but-2-ynyloxy)phenyl]sulfonyl}-5-methoxy-2-methyl-1-(3-methylbenzyl)tryptophan] | 78.8 |
| CC#CCOc1ccc(S(=O)(=O)N[C@@H](Cc2cn(CC3CCCCC3)c3ccc(C(=O)O)cc23)C(=O)O)cc1 [Example 132, N-{[4-(but-2-ynyloxy)phenyl]sulfonyl}-5-carboxy-1-(cyclohexylmethyl)tryptophan] | 9.55 |
| CC#CCOc1ccc(S(=O)(=O)N[C@H](Cc2cn(Cc3ccc(OCC)cc3)c3ccccc23)C(=O)O)cc1 [Example 215, N-{[4-(but-2-ynyloxy)phenyl]sulfonyl}-1-(4-ethoxybenzyl)-D-tryptophan] | 69.5 |
| CC#CCOc1ccc(S(=O)(=O)N[C@@H](Cc2cn(Cc3ccccc3C)c3ccc(OC)cc23)C(=O)O)cc1 [Example 49, N-{[4-(but-2-ynyloxy)phenyl]sulfonyl}-5-methoxy-1-(2-methylbenzyl)tryptophan] | 38.9 |
| CC#CCOc1ccc(S(=O)(=O)N[C@@H](Cc2c(C)n(Cc3ccc(C(C)C)cc3)c3ccccc23)C(=O)O)cc1 [Example 157, N-{[4-(but-2-ynyloxy)phenyl]sulfonyl}-1-(4-isopropylbenzyl)-2-methyltryptophan] | 34.2 |
| CC#CCOc1ccc(S(=O)(=O)N[C@@H](Cc2cn(Cc3ccc(C(F)(F)F)cc3)c3ccc(C(=O)O)cc23)C(=O)O)cc1 [Example 113, N-{[4-(but-2-ynyloxy)phenyl]sulfonyl}-5-carboxy-1-[4-(trifluoromethyl)benzyl]tryptophan] | -2.04 |
